{"source": "patent US20110294732A1", "about": "“ERYTHROPOLETIN COMPLEMENTATION OR REPLACEMENT” (Universite De Strasbourg, priority 2007, published 2011)", "key": {"Solubility of ITPP salts": {"test": "Solubility of ITPP salts", "type": "physicochemical", "excerpt": "(§1) Alternatively, ITPP-Ca can be produced by the addition of equimolar amounts of CaCl2 with an aqueous solution of ITPP-Na. The resulting mixture gives ITPP-Ca, which contains NaCl as an impurity."}, "circulating RBC": {"tested_on": "circulating RBC", "test": "P50 shift of circulating RBC after oral administration in drinking water", "type": "in vivo, C57BL/6 mice", "experimental": "In experiments conducted in vivo in which ITPP was administered orally, ITPP was dissolved in drinking (not deionized) water at a 20 g/L-concentration (=27 mM, pH 7.0) and offered for drinking ad libitum. A significant shift of the P50 value of circulating RBCs was observed.\nTwelve C57BL/6 mice drank ITPP over 4 days (about 25 ml/24 hrs). Seven Control mice drank either pure water (three mice), or a solution of IHP (inositol hexaphosphate without the internal pyrophosphate rings) at the same concentration and pH as ITPP (4 mice). […] Blood was collected from the tail vein of the 12 C57BL/6 mice on day 0 (before treatment started), 1, 2, 4, 6, 7, 8, 10, 11 and 12, in order to measure P50 values. […] Oral application of ITPP caused significant right shifts of P50 (up to 31%) in mice.\nThe 12 mice were observed over 12 days, the P50 values of their circulating RBC were measured almost daily. […] It appears that all mice ingesting the aqueous solution of ITPP present a shift of the P50 value of their circulating RBC, albeit with individual differences. FIG. 8 illustrates the individual differences in the P50 shift induced in the mice by ingestion of the aqueous solution of ITPP."}, "[1]": {"test": "Blood counts of mice after oral ingestion", "type": "in vivo", "details": "single mouse, oral in water for 4 days, day 7; day 0 count 8.9-11.8", "excerpt": "Blood from mice that ingested ITPP or IHP in water (for 4 days) or water only was collected on day 0, 7 and 11, in order to assess any differences in the blood count (and the amount of erythropoietin in the sera) of treated and control mice. […] The amount of blood from the other mice was not sufficient to determine the blood count."}, "hemoglobin [2]": {"target": "T1, hemoglobin (Homo sapiens, UniProt P68871)", "T1 sequence (P68871 2-147 limits assumed)": "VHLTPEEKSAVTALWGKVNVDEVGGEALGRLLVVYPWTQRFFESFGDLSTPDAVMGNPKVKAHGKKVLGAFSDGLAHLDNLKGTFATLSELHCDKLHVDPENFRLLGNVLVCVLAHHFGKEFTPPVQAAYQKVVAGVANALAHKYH", "T1 sequence (P69905 2-142 partner limits assumed)": "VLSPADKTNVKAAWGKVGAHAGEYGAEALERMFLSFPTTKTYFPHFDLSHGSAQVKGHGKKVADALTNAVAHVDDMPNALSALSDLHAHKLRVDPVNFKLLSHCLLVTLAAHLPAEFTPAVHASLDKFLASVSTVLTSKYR", "details": "relative to DPG; cited from earlier work"}, "hemoglobin [3]": {"target": "T1, hemoglobin", "details": "pH 7.4 and 37 degrees C; cited from earlier work"}, "[4]": {"test": "Blood counts of mice after oral ingestion", "type": "in vivo", "details": "single mouse, oral in water for 4 days; day 0 count 8.9-11.8"}, "Toxicity of ITPP salts": {"test": "Toxicity of ITPP salts", "details": "compared with the calcium salt / mixed salt", "excerpt": "as §1"}}, "data": [{"molecule": "O=P1([O-])OC2C3OP(=O)([O-])OP(=O)([O-])OC3C3OP(=O)([O-])OP(=O)([O-])OC3C2OP(=O)([O-])O1.[Ca+2].[Ca+2].[Ca+2]", "note": "(stereo not drawn) [pure calcium salt of ITPP, Calcium Salt of myo-inositol 1,6:2,3:4,5-tripyrophosphate]", "values": [{"measurement": "solubility", "setting": "Solubility of ITPP salts", "result": "relatively insoluble"}]}, {"molecule": "O=P(O)(O)O[C@H]1[C@H](OP(=O)(O)O)[C@@H](OP(=O)(O)O)[C@H](OP(=O)(O)O)[C@@H](OP(=O)(O)O)[C@H]1OP(=O)(O)O", "note": "[IHP, Inositol hexaphosphate, reference compound]", "values": [{"measurement": "right shift of P50", "setting": "circulating RBC; oral, 20 g/L (27 mM) in drinking water over 4 days", "result": "complete absence of shift"}, {"measurement": "P50 day 7, %", "setting": "circulating RBC; single mouse, oral in water for 4 days, day 7", "result": 3, "unit": "%"}, {"measurement": "P50 day 10, %", "setting": "circulating RBC; single mouse, oral in water for 4 days, day 10", "result": 0, "unit": "%"}, {"measurement": "RBC × 10^6/mm^3 (day 7)", "setting": "[1]", "result": "9.6 10^6/mm^3"}, {"measurement": "affinity to hemoglobin, higher than DPG", "setting": "hemoglobin [2]", "result": 1000, "unit": "fold"}, {"measurement": "P50 of hemoglobin increased up to", "setting": "hemoglobin [3]", "result": "≤ 96.4", "unit": "mm Hg"}, {"measurement": "RBC × 10^6/mm^3", "setting": "[4]", "result": "10.77 10^6/mm^3"}]}, {"molecule": "O=P1([O-])OC2C3OP(=O)([O-])OP(=O)([O-])OC3C3OP(=O)([O-])OP(=O)([O-])OC3C2OP(=O)([O-])O1.[Na+].[Na+].[Na+].[Na+].[Na+].[Na+]", "note": "(stereo not drawn) [pure sodium salt, myo-inositol tripyrophosphate]", "values": [{"measurement": "toxicity", "setting": "Toxicity of ITPP salts", "result": "relatively more toxic"}]}]}
